Tests used:
Saccharomyces cerevisiae [1] = experiment: In vitro inhibitory activity of Beta-1,3-glucan synthase of Saccharomyces cerevisiae at concentration of 50 ug/ml
Saccharomyces cerevisiae [2] = experiment: In vitro inhibitory activity of Beta-1,3-glucan synthase of Saccharomyces cerevisiae at concentration of 800 ug/ml
Saccharomyces cerevisiae [3] = experiment: In vitro inhibitory activity of Beta-1,3-glucan synthase of Saccharomyces cerevisiae at concentration of 200 ug/ml
Saccharomyces cerevisiae [4] = experiment: In vitro inhibitory activity of Beta-1,3-glucan synthase of Saccharomyces cerevisiae at concentration of 12.5 ug/ml
Saccharomyces cerevisiae [5] = experiment: In vitro inhibitory activity of Beta-1,3-glucan synthase of Saccharomyces cerevisiae at concentration of 100 ug/ml
Saccharomyces cerevisiae [6] = experiment: In vitro inhibitory activity of Beta-1,3-glucan synthase of Saccharomyces cerevisiae at concentration of 400 ug/ml
Phytophthora capsici = experiment: Minimum amount required to induce hyphal malformation in Phytophthora capsici; type: functional
Saccharomyces cerevisiae [7] = experiment: In vitro inhibitory activity of Beta-1,3-glucan synthase of Saccharomyces cerevisiae at concentration of 25 ug/ml

| SMILES | inhibition (Saccharomyces cerevisiae [1]) | inhibition (Saccharomyces cerevisiae [2]) | inhibition (Saccharomyces cerevisiae [3]) | inhibition (Saccharomyces cerevisiae [4]) | inhibition (Saccharomyces cerevisiae [5]) | inhibition (Saccharomyces cerevisiae [6]) | Activity (Phytophthora capsici) | inhibition (Saccharomyces cerevisiae [7]) |
| --- | --- | --- | --- | --- | --- | --- | --- | --- |
| C[C@H]1CCC/C=C/[C@@H]2C[C@H](O)C[C@H]2[C@H](O)/C=C/C(=O)O1 [BREFELDIN A] | 0% | 0% | 0% | 0% | 0% | 6% | 50 ug disk-1 | 0% |
| C[C@H]1C(=O)C(CO)=C[C@H](O)[C@H]1O | 47% | 91% | 75% | 12% | 66% | 85% | 100 ug disk-1 | 30% |
| CC(C)=C[C@H]1C[C@H](C)[C@]2(CC[C@]3(C)C[C@H]4[C@H](C(=O)C[C@@]4(C)O)/C(C=O)=C\C[C@H]32)O1 [OPHIOBOLIN A] | 56% | 89% | 79% | 31% | 74% | 84% | 10 ug disk-1 | 56% |
